Assay results published in patent US7998937B2, “Flavonoid compound having an antiviral activity” (Korea Research Institute of Bioscience and Biotechnology, priority 2005, dated 2011).

Tests used:
ST cells = assay: Cytotoxicity (CC50) in ST cells; settings: 0.1-100 μg/mL, 48 hours
[1] = tested on: influenza type B (B/Lee/40) virus; assay: Inhibitory activity against influenza type B virus in MDCK cells (SRB); format: cell-based; settings: 10 μg/mL, influenza B/Lee/40 in MDCK cells, 48 hours, repeated 3 times
[2] = tested on: porcine epidemic diarrhea virus (PEDV); assay: Antiviral activity against PEDV in Vero cells (SRB staining); settings: PEDV in Vero cells, maximum dosage 100 μg/mL, 48 hours
[3] = tested on: porcine transmissible gastroenteritis virus (TGEV); assay: Anti-coronavirus inhibitory activity against TGEV in ST cells; format: cell-based; settings: 48 hours
Method: (§1) Antiviral activity of quercetin-7-rhamnoside against porcine transmissible gastroenteritis virus (TGEV) and porcine respiratory coronavirus (PRCV), another kind of coronaviruses, was evaluated. ST cells were cultured on a 96-well microplate until the bottom of each well was completely covered with cells. Remaining culture medium was completely removed and each well was washed twice with a phosphate buffer. TGEV or PRCV solution adjusted to a concentration of TCID50 was added to each well. Each of quercetin-7-rhamnoside, conventional antiviral agents purchased from Sigma-ribavirin, lamivudine, azidovudine, acycloguanine and glycyrrhizhin-dissolved in dimethyl sulfoxide was added to each well to a final concentration of 0.1-100 μg/mL. […] Similarly to the aforesaid evaluation of antiviral inhibitory activity against PEDV, c ells treated with DMSO only and those treated with both DMSO and TGEV or both DMSO and PRCV were used as control groups.

mice = assay: Toxicity test in mice; format: in vivo; settings: 10 g/kg, dissolved in DMSO and diluted with water, observed for 7 days
Method: Toxicity test was performed as follows for the quercetin-7-rhamnoside of the present invention.
Quercetin-7-rhamnoside dissolved in dimethyl sulfoxide (DMSO) and diluted with water was administered to mice (10 per each group) at a dosage of 10 g/kg.

[4] = tested on: influenza type A (H1N1/WS/33) virus; assay: Antiviral activity against influenza type A virus in MDCK cells (SRB); format: cell-based, influenza virus type A (H1N1; WS/33 strain); settings: 10 μg/mL, influenza A H1N1/WS/33 in MDCK cells, 48 hours, repeated 3 times
Method: In order to evaluate the inhibitory activity of quercetin-7-rhamnoside against influenza virus, the following in vitro test was performed using MDCK cells derived from dog kidney.
Inhibitory activity of quercetin-7-rhamnoside against viral proliferation was measured by the method proposed by Kwon Dur-Han, et al. (Korean Patent Application No. 2004-101863). Inhibitory activity against influenza virus type A (H1N1; WS/33 strain) was measured. MDCK cells were cultured on a 96-well microplate until the bottom of each well was completely covered with cells. Remaining culture medium was completely removed and each well was washed twice with a phosphate buffer. Each of quercetin-7-rhamnoside; conventional antiviral agents purchased from Sigma-ribavirin and amantadine; oseltamivir (trade name: Tamiflu) purchased from Roche; and zanamivir (trade name: Relenza) purchased from Glaxo Wellcome; dissolved in dimethyl sulfoxide was added to each well to a final concentration of 10 μg/mL. […] After adding 100 μL of 70% acetone, each well was kept at −20° C. for 1 hour. After drying in a desiccator, 100 μL of 0.4% (w/v) SRB (sulforhodamine B) solution dissolved in 1% (v/v) acetic acid was added. After 30 minutes' staining, the SRB staining solution not bound to the cells was washed off with 1% (v/v) acetic acid for 4 times. After drying, 100 μL of 10 mM Tris solution (pH 10.5) was added to each well to dissolve the stained substance at the bottom of the well. Light absorbance was measured at 562 nm to evaluate the antiviral activity. As control group, viability of cells treated with DMSO only was compared with those treated with both DMSO and virus. Each test was repeated 3 times.

[5] = tested on: rhinovirus (strain: rhinovirus 2); assay: Inhibitory activity against rhinovirus in HeLa cells (SRB); format: cell-based; settings: 10 μg/mL, rhinovirus 2 in HeLa cells, 48 hours, repeated 3 times
Method: In order to evaluate the inhibitory activity of quercetin-7-rhamnoside against rhino virus, the following in vitro test was performed using HeLa, one of human cervical cancer cell lines, cells. Inhibitory activity of quercetin-7-rhamnoside against viral proliferation was measured by the method proposed by Kwon Dur-Han, et al. (Korean Patent Publication No. 2004-101863). […] HeLa cells were cultured on a 96-well microplate until the bottom of each well was completely covered with cells. Remaining culture medium was removed and each well was washed twice with a phosphate buffer. A rhino virus solution adjusted to a concentration of TCID 50 was added to each well. […] After 48 hours, the HeLa cells were observed under a microscope. After adding 100 μL of 70% acetone, each well was kept at −20° C. for 1 hour. After drying in a desiccator, 100 μL of 0.4% (w/v) SRB (sulforhodamine B) solution dissolved in 1% (v/v) acetic acid was added. After 30 minutes of staining, the SRB solution not bound to the cells was washed off with 1% (v/v) acetic acid for 4 times. After drying, 100 μL of 10 mM Tris solution (pH 10.5) was added to each well to dissolve the stained substance at the bottom of the well. Light absorbance was measured at 562 nm to evaluate the antiviral activity. As control group, viability of cells treated with DMSO only was compared with those treated with both DMSO and virus. Each test was repeated for 3 times.

rotavirus (strain: OSU) = assay: Inhibitory activity against rotavirus in MA104 cells (SRB); format: cell-based; settings: 10 μg/mL, rotavirus OSU in MA104 cells, 48 hours, repeated 2 times
Method: In order to evaluate the inhibitory activity of quercetin-7-rhamnoside against rota virus, the following in vitro test was performed using MA014 cells derived from […] kidney. Inhibitory activity of quercetin-7-rhamnoside against viral proliferation was measured by the method proposed by Kwon Dur-Han, et al. (Korean Patent Publication No. 2004-101863). Inhibitory activity against rotavirus (strain: OSU) was measured. MA104 cells were cultured on a 96-well microplate until the bottom of each well was completely covered with cells. Remaining culture medium was removed and each well was washed twice with a phosphate buffer. A rota virus solution adjusted to a concentration of TCID 50 was added to each well. […] After 48 hours, the MA104 cells were observed under a microscope. After adding 100 μL of 70% acetone, each well was kept at −20° C. for 1 hour. After drying in a desiccator, 100 μL of 0.4% (w/v) SRB (sulforhodamine B) solution dissolved in 1% (v/v) acetic acid was added. After 30 minutes of staining, the SRB solution not bound to the cells was washed off with 1% (v/v) acetic acid for 4 times. After drying, 100 μL of 10 mM Tris solution (pH 10.5) was added to each well to dissolve the stained substance at the bottom of the well. Light absorbance was measured at 562 nm to evaluate the antiviral activity. As control group, viability of cells treated with DMSO only was compared with those treated with both DMSO and virus. Each test was repeated for 2 times.

[6] = tested on: porcine respiratory coronavirus (PRCV); assay: Anti-coronavirus inhibitory activity against PRCV in ST cells; format: cell-based; settings: 48 hours
Method: as §1

Vero cells = assay: Cytotoxicity (CC50) in Vero cells; settings: 0.1-100 μg/mL, 48 hours

## C[C@@H]1O[C@@H](Oc2cc(O)c3c(=O)c(O)c(-c4ccc(O)c(O)c4)oc3c2)[C@H](O)[C@H](O)[C@H]1O [Quercetin-7-rhamnoside, quercetin-7-rhamnoside]
ST cells
  CC50: > 100 µg/mL
[1]
  Inhibitory activity (%) (Mean ± S.D.): 92.66%
[2]
  IC50 (concentration required for 50% inhibition of viruses): (0.014 μg/mL)]
[3]
  IC50: (63.3 μg/mL)]
mice
  deaths after administration: none of them were found dead
[4]
  Inhibitory activity (%) (Mean ± S.D.): 66.03%
[5]
  Inhibitory activity (%) (Mean ± S.D.): 77.89%
Rotavirus (strain: OSU)
  Inhibitory activity (%) (Mean ± S.D.): 77.37%
[6]
  IC50: (59.8 μg/mL)]
Vero cells
  CC50 (concentration required for 50% cytotoxicity): > 100 µg/mL
